Assay results reported in PMC3237348, “Chemical Genomics Profiling of Environmental Chemical Modulation of Human Nuclear Receptors” (Environmental Health Perspectives, 2011).
One block for each compound: values may come before it.

What was measured:
[1] = target: T1, RXRα (Homo sapiens, UniProt P19793); assay: GAL-LBD beta-lactamase reporter qHTS, HEK […], […] nm ratio; type: cell-based
T1 construct: gene RXRA; GeneBLAzer bla HEK 293T reporter line (Invitrogen)
T1 sequence (P19793 225-462 limits assumed): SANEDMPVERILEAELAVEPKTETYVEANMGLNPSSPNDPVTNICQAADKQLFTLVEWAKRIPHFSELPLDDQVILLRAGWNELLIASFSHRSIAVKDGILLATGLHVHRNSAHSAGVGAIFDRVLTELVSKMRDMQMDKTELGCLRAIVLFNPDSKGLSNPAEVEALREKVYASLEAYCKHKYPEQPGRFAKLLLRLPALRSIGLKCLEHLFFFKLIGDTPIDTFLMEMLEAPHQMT

[2] = target: T2, PPARγ (Homo sapiens, UniProt P37231); assay: cell-based; set-up: species or system HEK 293T; GeneBLAzer GAL4-LBD beta-lactamase reporter, antagonist mode with added agonist, 460/530 nm FRET ratio; details: with rosiglitazone 0.05 uM; antagonist mode, known agonist added; read-out: Control Titration EC50/IC50 (µM), antagonist mode
T2 construct: gene PPARG; GeneBLAzer bla HEK 293T reporter line (Invitrogen)
T2 sequence (P37231 238-505 limits assumed): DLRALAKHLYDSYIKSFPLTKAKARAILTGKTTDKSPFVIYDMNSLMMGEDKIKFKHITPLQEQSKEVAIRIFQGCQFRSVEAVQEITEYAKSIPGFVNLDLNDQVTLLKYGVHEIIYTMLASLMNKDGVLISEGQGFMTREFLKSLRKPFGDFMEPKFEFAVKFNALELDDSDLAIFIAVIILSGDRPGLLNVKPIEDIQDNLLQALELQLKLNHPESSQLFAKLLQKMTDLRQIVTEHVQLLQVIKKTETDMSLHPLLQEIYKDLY
Source text: (§1) β-Lactamase reporter gene assay and qHTS. […] All cell culture reagents were obtained from Invitrogen.

[3] = target: T2, PPARγ; assay: GAL-LBD beta-lactamase reporter qHTS, HEK […], […] nm ratio; type: cell-based
[4] = target: T3, PPARδ (Homo sapiens, UniProt Q03181); assay: as above; type: cell-based
T3 construct: gene PPARD; GeneBLAzer bla HEK 293T reporter line (Invitrogen)
T3 sequence (Q03181 139-441 limits assumed): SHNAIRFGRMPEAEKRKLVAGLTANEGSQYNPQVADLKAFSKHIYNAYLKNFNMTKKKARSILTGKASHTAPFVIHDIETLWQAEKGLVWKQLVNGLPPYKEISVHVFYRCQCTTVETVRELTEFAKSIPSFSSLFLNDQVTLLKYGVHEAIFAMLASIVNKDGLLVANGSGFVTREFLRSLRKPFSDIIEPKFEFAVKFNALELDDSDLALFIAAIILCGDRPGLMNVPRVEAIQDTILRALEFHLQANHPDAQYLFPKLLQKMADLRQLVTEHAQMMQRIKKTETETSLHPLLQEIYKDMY

[5] = target: T2, PPARγ; assay: as above; type: cell-based; remark: listed apart in the source
[6] = target: T4, GR (Homo sapiens, UniProt P04150); assay: as above; type: cell-based
T4 construct: gene NR3C1; GeneBLAzer bla HEK 293T reporter line (Invitrogen)
T4 sequence (P04150 521-777 limits assumed): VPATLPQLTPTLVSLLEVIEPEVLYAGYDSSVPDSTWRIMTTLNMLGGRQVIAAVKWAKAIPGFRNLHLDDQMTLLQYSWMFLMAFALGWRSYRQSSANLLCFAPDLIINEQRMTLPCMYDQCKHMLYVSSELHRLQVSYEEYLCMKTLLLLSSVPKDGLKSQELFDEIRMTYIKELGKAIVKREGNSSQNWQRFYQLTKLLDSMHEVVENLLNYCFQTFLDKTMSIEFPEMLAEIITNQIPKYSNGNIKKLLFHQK

[7] = target: T3, PPARδ; assay: cell-based; set-up: species or system HEK 293T; GeneBLAzer GAL4-LBD beta-lactamase reporter, antagonist mode with added agonist, 460/530 nm FRET ratio; details: with L165041 0.5 uM; antagonist mode, known agonist added; read-out: Control Titration EC50/IC50 (µM), antagonist mode
Source text: as §1

[8] = target: T5, ERα (Homo sapiens, UniProt P03372); assay: GAL-LBD beta-lactamase reporter qHTS, HEK […], […] nm ratio; type: cell-based
T5 construct: gene ESR1; GeneBLAzer bla HEK 293T reporter line (Invitrogen)
T5 sequence (P03372 311-547 limits assumed): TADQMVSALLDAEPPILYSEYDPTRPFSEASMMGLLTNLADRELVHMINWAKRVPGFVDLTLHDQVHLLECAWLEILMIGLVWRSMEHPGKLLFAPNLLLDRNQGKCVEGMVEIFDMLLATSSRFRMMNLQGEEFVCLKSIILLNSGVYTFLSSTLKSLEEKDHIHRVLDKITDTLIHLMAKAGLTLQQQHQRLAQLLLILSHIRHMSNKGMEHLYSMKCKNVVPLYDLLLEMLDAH

[9] = target: T6, LXRβ (Homo sapiens, UniProt P55055); assay: as above; type: cell-based; details: agonist mode; […]-18 h at […] °C; unreliable
T6 construct: gene NR1H2; GeneBLAzer bla HEK 293T reporter line (Invitrogen)
T6 sequence (P55055 222-460 limits assumed): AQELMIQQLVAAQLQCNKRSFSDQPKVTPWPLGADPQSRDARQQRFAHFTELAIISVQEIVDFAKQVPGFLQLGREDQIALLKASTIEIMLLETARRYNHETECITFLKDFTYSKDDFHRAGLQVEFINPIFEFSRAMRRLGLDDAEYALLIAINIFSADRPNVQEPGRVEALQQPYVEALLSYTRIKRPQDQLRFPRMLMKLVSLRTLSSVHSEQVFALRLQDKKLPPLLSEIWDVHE

[10] = target: T3, PPARδ; assay: cell-based; set-up: species or system HEK 293T; GeneBLAzer GAL4-LBD beta-lactamase reporter, agonist mode, 460/530 nm FRET ratio; details: agonist mode; read-out: Control Titration EC50/IC50 (µM), agonist mode
Source text: as §1

Structure (SMILES): C/C(=C\c1ccc(C(=O)O)cc1)c1ccc2c(c1)C(C)(C)CCC2(C)C [TTNPB, (E)-4-[2-(5,6,7,8-tetrahydro-5,5,8,8-tetramethyl-2-naphthylenyl)-1-propenyl] benzoic acid]
EC50 [1]: 710 nM

Structure (SMILES): CCCCCCCCCCCCCCC(Br)C(=O)O (centres unmarked) [2-Bromohexadecanoic acid]
EC50 [4]: 28200 nM

Structure (SMILES): CC(C)C[C@H](NC(=O)OCC1c2ccccc2-c2ccccc21)C(=O)O [Fmoc-l-leucine]
EC50 [5]: 11200 nM

Structure (SMILES): C[C@]12C=CC(=O)C=C1CC[C@H]1[C@@H]3C[C@@H](O)[C@](O)(C(=O)CO)[C@@]3(C)C[C@H](O)[C@@]12F [Triamcinolone]
EC50 [6]: 110 nM

Structure (SMILES): CCCc1c(-c2ccc(O)cc2)nn(-c2ccc(O)cc2)c1-c1ccc(O)cc1 [1,3,5-tris(4-Hydroxyphenyl)-4-propyl-1H-pyrazole]
EC50 [8]: 100 nM

Structure (SMILES): CC(C)CCC[C@@H](C)[C@H]1CC[C@H]2[C@@H]3CC=C4C[C@@H](O)CC[C@]4(C)[C@H]3CC[C@]12C [Cholesterol]
EC50 [9]: 39810 nM

Structure (SMILES): CCCc1c(OCCCOc2ccc(OCC(=O)O)cc2)ccc(C(C)=O)c1O [l-165,041]
EC50 [10]: 0.036 ± 0.006 µM | EC50 [4]: 90 nM

Structure (SMILES): CC(C)(c1ccc(OCC2CO2)cc1)c1ccc(OCC2CO2)cc1 (centres unmarked) [BADGE]
IC50 ([3]; antagonist mode, nonsaturating agonist pre-added, […]-18 h at […] °C): 50100 nM

Now from value to compound:

IC50 [2]: 0.011 µM | IC50 [3]: 12600 nM
Structure (SMILES): O=C(Nc1ccccc1)c1cc([N+](=O)[O-])ccc1Cl [GW9662]

IC50 [7]: 54 µM
Structure (SMILES): CC(C)c1ccc2c(c1)c(SC(C)(C)C)c(CC(C)(C)C(=O)O)n2Cc1ccc(Cl)cc1 [MK886]

EC50 [1]: 620 nM
Structure (SMILES): CC1(C)CCC(C)(C)c2cc(C(=O)Nc3ccc(C(=O)O)cc3)ccc21 [AM-580]

EC50 [9]: 250 nM
Structure (SMILES): O=S(=O)(c1ccccc1)N(CC(F)(F)F)c1ccc(C(O)(C(F)(F)F)C(F)(F)F)cc1 [TO-901317]
